Reference: patent US20220096535A1, “COMBINATION DRUG THERAPIES OF PDE-5 INHIBITORS AND INHALED NITRIC OXIDE” (BELLEROPHON THERAPEUTICS, priority 2019, published 2022)

Experiment: Drug-drug interaction study between pulsed, inhaled nitric oxide and sildenafil in healthy volunteers
Method: Inhaled Nitric Oxide (iNO) has been approved for use in infants with hypoxic respiratory failure. Nitric oxide is a selective pulmonary vasodilator, whose action is mediated by the cyclic guanosine monophosphate (cGMP) pathway. […] The objective of this study is to investigate the potential pharmacodynamic interaction between pulsed iNO and sildenafil in healthy volunteers.
Five healthy volunteers received sildenafil for 24 hours prior to the addition of iNO. Changes in pharmacodynamics parameters such as Heart Rate, Blood Pressure, and Oxygen Saturation after dosing with both drugs was assessed for 27 hours and hourly for 4 hours post iNO discontinuation.
FIG. 7 illustrates the protocol design for this study. Briefly, on Day 1, subjects were dosed with sildenafil alone. One dose of 20 mg sildenafil was administered every […] on day 1 for a total of 3 doses on day 1. Vital signs (heart rate, blood pressure, and oxygen saturation) were assessed beginning 1 hour prior to administration of sildenafil and every 30 minutes until 2.5 hours after each dose of sildenafil. Adverse events were also monitored. On days 2-3, the sildenafil regimen was continued as administered on day 1, and supplemented with 27.5 hours of pulsed iNO therapy at 75 mcg/kg individual body weight (IBW)/hr (INOPulse). Vital signs were assessed beginning 1 hour prior to administration of iNO and every 30 minutes until 2.5 hours after each dose of sildenafil. Upon discontinuation of iNO, vital signs were measured hourly for a 4-hour period, and subjects were monitored for syncope and lightheadedness. Nitric oxide metabolites were measured throughout administration of iNO and for 4 hours post-discontinuation of iNO.

SMILES	Synergistic interaction (hypotensive drug-drug interaction) between iNO and sildenafil (even at peak levels of metabolites, all volunteers)	Other adverse events (iNO 75 mcg/kg IBW/hr co-administered with 20 mg sildenafil)	Syncope, lightheadedness, or signs of rebound upon discontinuation of iNO (monitored for 4 hours after iNO discontinuation, sildenafil background)	Systolic and diastolic blood pressures during co-administration of iNO, compared to first 3 doses of sildenafil alone (pulsed iNO 75 mcg/kg IBW/hr for 27.5 hours with 20 mg sildenafil, sildenafil doses 4 and 5, and peak nitric oxide metabolites (doses 6 and 7))	Blood pressure after dosing with sildenafil alone (5 healthy volunteers, 20 mg sildenafil every 6 hours, all 3 doses on day 1, within 2.5 hours after dosing)
[N]=O [iNO, nitric oxide]	No synergistic interaction	no other adverse events were identified	no instances of syncope, lightheadedness, or signs of possible rebound	no further decline	
CCCc1nn(C)c2c(=O)[nH]c(-c3cc(S(=O)(=O)N4CCN(C)CC4)ccc3OCC)nc12 [sildenafil]					drop in blood pressure
